One experiment concerns the target KRAS G12D-BRAF complex (Homo sapiens (Human), UniProt P01116+P62937, G12D). Nature of the experiment: KRAS-BRAF with CYPA (500 nM) interaction assay (TR-FRET), G12D. The class given is biochemical. Here is the method:
(§1) Kras-BRAF with CYPA (500 nM) Interaction Assay In this example, TR-FRET was also used to measure the compound or compound-CYPA dependent disruption of the KRAS G12C-BRAF complex. This protocol was also used to measure disruption of KRAS G12D or KRAS G12V binding to BRAF by a compound of the invention, respectively. […] Compound was present in plate wells as a 16-point 3-fold dilution series starting at a final concentration of 10 μM and incubated for 3 hours. […] TR-FRET signal was read on a […] microplate reader (Ex320 nm, Em 665/615 nm). Compounds that facilitate disruption of the KRAS-BRAF complex were identified as those eliciting a decrease in the TR-FRET ratio relative to DMSO control wells.
Background: TR-FRET usually uses a lanthanide donor and a delayed reading to cut background.

The test system of experiment [1] is NCI-H358 cells (KRAS G12C). Briefly: Cell viability assay (Cell Counting Kit-8), KRAS G12C. Type of experiment: cell-based. The settings on record: Homo sapiens, NCI-H358, 72 hrs. Here is the method: (§2) The purpose of this cellular assay was to determine the effects of test compounds on the proliferation of human cancer cell lines NCI-H358 (ATCC-CRL5807) cells, AGS (ATCC-CRL-1739) cells, SW620 (ATCC-CCL-227) over a 3-day treatment period by quantifying the amount of NADPH present at endpoint using Cell Counting Kit-8.
(§3) Cells were seeded at 5,000 cells/well (NCI-H358), 2,000 cells/well (AGS)2,000 cells/well (SW620) in 96-well assay plates (Corning-3699) and incubated overnight. On the day of the assay, diluted compounds were then added in a final concentration of 0.5% DMSO. After 72 hrs incubation, a tenth of the volume of cell counting kit 8 (Dnjindo-CK04) was added into each well. Read the signal (OD450 minus OD650) using EnVision after 2 hrs incubation. IC50 was determined by fitting a 4-parameter sigmoidal concentration response model.
On the technique in general: Tetrazolium assays rely on reduction of a dye to a coloured formazan, in cell work by metabolically active cells.

The test system of experiment [2] is phosphorylation of ERK, KRAS G12D in AGS cells. Nature of the experiment: pERK inhibition assay, KRAS G12D in AGS cells. The class given is cell-based, human. The settings on record: Homo sapiens, 4 hours. Here is the method:
(§4) This assay is to measure the ability of test compounds in inhibiting the phosphorylation of ERK, the downstream signaling of KRAS G12C in NCI-H358 cells, KRAS G12D in AGS cells, and KRAS G12V in SW620. NCI-H358 (ATCC-CRL5807) cells, AGS (ATCC-CRL-1739) cells, SW620 (ATCC-CCL-227) cells were all grown and maintained using RPMI-1640 medium (Thermo Fisher Scientific) with 10% fetal bovine serum and 1% penicillin/streptomycin. On the day prior to compound addition, cells were plated in tissue culture-treated 96 well plates (Corning-3699) at a density of 30,000 cell/well, 20,000 cell/well, 30,000 cell/well for NCI-H358, AGS and SW620 respectively, and allowed for attachment overnight. Diluted compounds were then added in a final concentration of 0.5% DMSO. After 4 hours of incubation, the medium was removed, 100 μL of 4% formaldehyde was added, and the assay plates were incubated at room temperature for 20 minutes. The plates were then washed once with phosphate buffered saline (PBS), and permeabilized with 100 μL of chilled methanol for 10 minutes. Non-specific antibody binding to the plates was blocked using 50 μL 1X BSA blocking buffer (Thermo-37520, 10-fold dilution by Phosphate-Buffered Saline Tween (PBST) for at least 1 hour at room temperature.
(§5) The amount of phosphor-ERK was determined using an antibody specific for phosphorylated form of ERK. Primary antibody (PERK, CST-4370, Cell Signaling Technology) was diluted 1:300 in blocking buffer, with 50 μL aliquoted to each well, and incubated overnight at 4° C. Cells was washed five times for 5 minutes with PBST. Secondary antibody (HRP-linked anti-rabbit IgG, CST-7074, Cell Signaling Technology) was diluted 1:1000 in blocking buffer, and 50 μL was added to each well and incubated 1-2 hrs at room temperature. Cells was washed […] for 5 minutes with PBST, 100 μL TMB ELISA substrate (abcam-ab171523) were added and gently shake for 20 minutes. 50 μL stop solution (abcam-ab171529) were added, and then read the signal (OD450) by EnVision.
(§6) IC50 was determined by fitting a 4-parameter sigmoidal concentration response model.

The target of a further experiment is KRAS G12V-BRAF complex (Homo sapiens (Human), UniProt P01116+P62937, G12V). Nature of the experiment: KRAS-BRAF with CYPA (500 nM) interaction assay (TR-FRET), G12V. The class given is biochemical. How it is done: as §1
For a further experiment, the system named is AGS cells (KRAS G12D). Nature of the experiment: Cell viability assay (Cell Counting Kit-8), KRAS G12D. Type of experiment: cell-based. The settings on record: Homo sapiens, 72 hrs. Here is the method: as §2, §3
Experiment [3] concerns phosphorylation of ERK, KRAS G12V in SW620 cells. Nature of the experiment: pERK inhibition assay, KRAS G12V in SW620. Type of experiment: cell-based, human. The settings on record: Homo sapiens, SW-620, SW620, 4 hours. How it is done:
as §4, §5, §6

Another experiment deals with KRAS G12C-BRAF complex (Homo sapiens (Human), UniProt P01116+P62937, G12C). Nature of the experiment: KRAS-BRAF with CYPA (500 nM) interaction assay (TR-FRET), G12C. Type of experiment: biochemical. How it is done:
as §1

The test system of experiment [4] is phosphorylation of ERK, KRAS G12C in NCI-H358 cells. Nature of the experiment: pERK inhibition assay, KRAS G12C in NCI-H358 cells. The settings on record: Homo sapiens, NCI-H358, 4 hours. Type of experiment: cell-based, human. Here is the method: as §4, §5, §6
A further experiment concerns SW620 cells (KRAS G12V). Briefly: Cell viability assay (Cell Counting Kit-8), KRAS G12V. The class given is cell-based. The settings on record: Homo sapiens, SW-620, SW620, 72 hrs. Here is the method: as §2, §3

SMILES strings stand for the structures.

Broadly, the IC50 is the point on the concentration scale where inhibition reaches its midpoint.

Sequence of KRAS G12D-BRAF complex (P01116-2 other isoform, or with tags, fused parts or gaps G12D): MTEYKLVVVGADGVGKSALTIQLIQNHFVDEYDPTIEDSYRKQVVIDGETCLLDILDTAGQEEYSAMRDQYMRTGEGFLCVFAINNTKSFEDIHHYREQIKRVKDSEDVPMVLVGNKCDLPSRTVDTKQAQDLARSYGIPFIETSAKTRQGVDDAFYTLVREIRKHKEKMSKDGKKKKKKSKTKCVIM
Sequence of KRAS G12D-BRAF complex (P62937 whole entry): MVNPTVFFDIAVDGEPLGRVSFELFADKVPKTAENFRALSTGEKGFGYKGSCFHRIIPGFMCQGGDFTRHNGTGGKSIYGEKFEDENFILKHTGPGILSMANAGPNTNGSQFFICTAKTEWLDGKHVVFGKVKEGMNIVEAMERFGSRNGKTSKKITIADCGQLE
Sequence of KRAS G12C-BRAF complex (P01116-2 other isoform, or with tags, fused parts or gaps G12C): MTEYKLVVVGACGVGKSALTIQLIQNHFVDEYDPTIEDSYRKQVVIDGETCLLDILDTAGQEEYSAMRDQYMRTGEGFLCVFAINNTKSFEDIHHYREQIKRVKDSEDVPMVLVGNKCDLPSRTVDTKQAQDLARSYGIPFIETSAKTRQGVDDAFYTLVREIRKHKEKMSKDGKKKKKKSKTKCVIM
Sequence of KRAS G12C-BRAF complex (P62937 whole entry): as the sequence (P62937 whole entry) above
Sequence of KRAS G12V-BRAF complex (P01116-2 other isoform, or with tags, fused parts or gaps G12V): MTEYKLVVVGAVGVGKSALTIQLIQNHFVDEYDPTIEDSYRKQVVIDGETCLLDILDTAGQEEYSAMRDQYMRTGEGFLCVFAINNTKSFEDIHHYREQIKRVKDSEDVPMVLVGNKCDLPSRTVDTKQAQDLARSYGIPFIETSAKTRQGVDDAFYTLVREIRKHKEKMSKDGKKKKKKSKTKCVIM
Sequence of KRAS G12V-BRAF complex (P62937 whole entry): as the sequence (P62937 whole entry) above

Regarding `CO[C@@H](C)c1ncc(N2CCN(CC(F)(F)F)CC2)cc1-c1c2c3cc(c(F)cc3n1CC(F)(F)F)-c1csc(n1)C[C@H](NC(=O)[C@H](C(C)C)N(C)C(=O)N1CC(N(C)C)C1)C(=O)N1CCC[C@H](N1)C(=O)OCC(C)(C)C2` (atropisomer, axis not shown; (M)) [Example 12, 3-(dimethylamino)-N-[(1S)-1-[[(7S,13S)-24-fluoro-(20M)-20-[2-[(1S)-1-methoxyethyl]-5-[4-(2,2,2-trifluoroethyl)piperazin-1-yl]-3-pyridyl]-17,17-dimethyl-8,14-dioxo-21-(2,2,2-trifluoroethyl)-15-oxa-4-thia-9,21,27,28-tetrazapentacyclo[17.5.2.1^2,5.1^9,13.0^22,26]octacosa-1 (25),2,5 (28),19,22 (26),23-hexaen-7-yl]carbamoyl]-2-methyl-propyl]-N-methyl-azetidine-1-carboxamide], the IC50 at KRAS G12D-BRAF complex came to 0.14 µM; in experiment [1] it was 0.009 µM; in [2], 0.015 µM; against KRAS G12V-BRAF complex it was 0.085 µM; in the experiment on AGS cells (KRAS G12D) it was 0.038 µM; in experiment [3] it was 0.004 µM. The IC50 worked out at 0.029 µM against KRAS G12C-BRAF complex, 0.006 µM in [4] and 0.007 µM in the experiment with SW620 cells (KRAS G12V).

Consider `CCn1c(-c2cc(N3CCOCC3)cnc2[C@H](C)OC)c2c3cc(c(F)cc31)-c1csc(n1)C[C@H](NC(=O)[C@H](C(C)C)N(C)C(=O)NCC(F)(F)F)C(=O)N1CCC[C@H](N1)C(=O)OCC(C)(C)C2` (atropisomer, axis not shown; (M)) [Example 13, (2S)-N-[(7S,13S)-21-ethyl-24-fluoro-(20M)-20-[2-[(1S)-1-methoxyethyl]-5-morpholino-3-pyridyl]-17,17-dimethyl-8,14-dioxo-15-oxa-4-thia-9,21,27,28-tetrazapentacyclo[17.5.2.1^2,5.1^9,13.0^22,26]octacosa-1 (25),2,5 (28),19,22 (26),23-hexaen-7-yl]-3-methyl-2-[methyl(2,2,2-trifluoroethylcarbamoyl)amino]butanamide], for which the concentration for half-maximal inhibition (IC50) at KRAS G12D-BRAF complex is above 10 µM; in [1], 0.026 µM; in experiment [2] it was 0.046 µM; at KRAS G12V-BRAF complex it was above 10 µM; with AGS cells (KRAS G12D), 0.447 µM; in [3] it was 0.008 µM. For the same molecule, the concentration for half-maximal inhibition (IC50) is above 10 µM against KRAS G12C-BRAF complex, 0.019 µM in [4] and 0.029 µM with SW620 cells (KRAS G12V).

For `CCn1c(-c2cc(N3CCOCC3)cnc2[C@H](C)OC)c2c3cc(c(F)cc31)-c1csc(n1)C[C@H](NC(=O)[C@H](C(C)C)N(C)C(=O)N1CC(C(F)(F)F)C1)C(=O)N1CCC[C@H](N1)C(=O)OCC(C)(C)C2` (atropisomer, axis not shown; (M)) [Example 14, N-[(1S)-1-[[(7S,13S)-21-ethyl-24-fluoro-(20M)-20-[2-[(1S)-1-methoxyethyl]-5-morpholino-3-pyridyl]-17,17-dimethyl-8,14-dioxo-15-oxa-4-thia-9,21,27,28-tetrazapentacyclo[17.5.2.1^2,5.1^9,13.0^22,26]octacosa-1 (25),2,5 (28),19,22 (26),23-hexaen-7-yl]carbamoyl]-2-methyl-propyl]-N-methyl-3-(trifluoromethyl) azetidine-1-carboxamide], the IC50 at KRAS G12D-BRAF complex was above 10 µM; in experiment [1] it was 0.1 µM; in experiment [2], 0.032 µM; at KRAS G12V-BRAF complex, above 10 µM; in the experiment with AGS cells (KRAS G12D) it was above 10 µM; in experiment [3], 0.012 µM. The figures for the IC50 (against KRAS G12C-BRAF complex; in experiment [4]; with SW620 cells (KRAS G12V)) were above 10 µM, 0.028 µM and 0.073 µM, respectively.

`CO[C@@H](C)c1ncc(N2CCN(CC(F)(F)F)CC2)cc1-c1c2c3c(F)c(ccc3n1CC(F)(F)F)-c1csc(n1)C[C@H](NC(=O)[C@H](C(C)C)N(C)C(=O)N1CCOCC1)C(=O)N1CCC[C@H](N1)C(=O)OCC(C)(C)C2` (atropisomer, axis not shown; (M)) [Example 17, N-[(1S)-1-[[(7S,13S)-25-fluoro-(20M)-20-[2-[(1S)-1-methoxyethyl]-5-[4-(2,2,2-trifluoroethyl)piperazin-1-yl]-3-pyridyl]-17,17-dimethyl-8,14-dioxo-21-(2,2,2-trifluoroethyl)-15-oxa-4-thia-9,21,27,28-tetrazapentacyclo[17.5.2.1^2,5.1^9,13.0^22,26]octacosa-1 (25),2,5 (28),19,22 (26),23-hexaen-7-yl]carbamoyl]-2-methyl-propyl]-N-methyl-morpholine-4-carboxamide]: the half-maximal inhibitory concentration (IC50) amounted to 0.007 µM at KRAS G12D-BRAF complex; 0.004 µM in [1]; 0.004 µM in [2]; 0.004 µM on KRAS G12V-BRAF complex; 0.046 µM in the experiment with AGS cells (KRAS G12D); 0.004 µM in [3]. Moreover, the IC50 at KRAS G12C-BRAF complex was determined as 0.002 µM; in [4], 0.008 µM; with SW620 cells (KRAS G12V), 0.006 µM.

The record behind these values is patent US20250268894A1, “MACROCYCLE COMPOUNDS FOR THE TREATMENT OF CANCER” (Hoffmann-La Roche Inc., priority 2022, published 2025).
